Source: ChEMBL document CHEMBL1201862, “PubChem BioAssay data set” (2004)
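Grown in 96-well plates, cells were treated for 48 hours with each compound at five concentrations. Insufficient inhibition: endpoint recorded as highest concentration tested. GI50 is the concentration that inhibits growth by half.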 Active and inactive are the calls of the source. Cut-off read from the data, not from the text of the source: active = GI50 up to about 1.1 µM and inactive = higher.

What was measured:
Test in all cases: inhibition of tumour cell growth, NCI panel, 48 h
[1] = system: SF-268
[2] = system: MDA-N
[3] = system: DU-145
[4] = system: NCI-H226
[5] = system: COLO 205
[6] = system: RPMI-8226
[7] = system: OVCAR-4
[8] = system: U-251
[9] = system: SK-OV-3
[10] = system: TK-10
[11] = system: OVCAR-5
[12] = system: HOP-92
[13] = system: UACC-257
[14] = system: M14
[15] = system: SW-620
[16] = system: MDA-MB-231
[17] = system: T47D
[18] = system: HOP-62
[19] = system: SNB-75
[20] = system: HCT-116
[21] = system: SF-539
[22] = system: UO-31
[23] = system: CAKI-1
[24] = system: MOLT-4
[25] = system: SK-MEL-28
[26] = system: ACHN
[27] = system: K562
[28] = system: LOX IMVI
[29] = system: MDA-MB-435
[30] = system: SK-MEL-2
[31] = system: NCI/ADR-RES
[32] = system: MCF7
[33] = system: CCRF-CEM
[34] = system: SNB-19
[35] = system: OVCAR-3
[36] = system: EKVX
[37] = system: HCT-15
[38] = system: SF-295
[39] = system: KM12
[40] = system: UACC-62
[41] = system: 786-0
[42] = system: A549
[43] = system: SN12C
[44] = system: HCC 2998
[45] = system: RXF 393
[46] = system: A498
[47] = system: PC-3
[48] = system: SK-MEL-5
[49] = system: Hs-578T

In the case of COc1cccc([C@@H]2C/C(=N\NC(=O)C(=O)N[C@@H](C)c3ccccc3)c3ccccc3N2)c1, the GI50 [1] was 71 µM (inactive), the GI50 [2] was 4.66 µM (inactive) and the GI50 [3] was > 100 µM (inactive). For the same molecule, the GI50 [4] was > 100 µM (inactive), the GI50 [5] was > 100 µM (inactive) and the GI50 [6] was 32.4 µM (inactive). For the same molecule, the GI50 [7] was 34.8 µM (inactive), the GI50 [8] was > 100 µM (inactive) and the GI50 [9] was > 100 µM (inactive). For the same molecule, the GI50 [10] was > 100 µM (inactive), the GI50 [11] was > 100 µM (inactive) and the GI50 [12] was 30.5 µM (inactive). For the same molecule, the GI50 [13] was 82 µM (inactive), the GI50 [14] was > 100 µM (inactive) and the GI50 [15] was 89.5 µM (inactive). The GI50 [16] was 35.6 µM (inactive), the GI50 [17] was 51.6 µM (inactive) and the GI50 [18] was 76.6 µM (inactive). The GI50 [19] was 21.3 µM (inactive), the GI50 [20] was > 100 µM (inactive) and the GI50 [21] was 13.1 µM (inactive). The GI50 [22] was > 100 µM (inactive), the GI50 [23] was 25.8 µM (inactive) and the GI50 [24] was 4.1 µM (inactive). For the same molecule, the GI50 [25] was > 100 µM (inactive), the GI50 [26] was 40.6 µM (inactive) and the GI50 [27] was 32.1 µM (inactive). For the same molecule, the GI50 [28] was > 100 µM (inactive), the GI50 [29] was 4.82 µM (inactive) and the GI50 [30] was > 100 µM (inactive). For the same molecule, the GI50 [31] was 65.2 µM (inactive), the GI50 [32] was 7.05 µM (inactive) and the GI50 [33] was > 100 µM (inactive). For the same molecule, the GI50 [34] was 24.6 µM (inactive), the GI50 [35] was > 100 µM (inactive) and the GI50 [36] was 61.4 µM (inactive). For the same molecule, the GI50 [37] was greater than 100 µM, the GI50 [38] was 73.1 µM (inactive) and the GI50 [39] was 10.1 µM (inactive). The GI50 [40] was 9.31 µM (inactive), the GI50 [41] was 44.6 µM (inactive) and the GI50 [42] was 46.1 µM (inactive). For the same molecule, the GI50 [43] was > 100 µM (inactive), the GI50 [44] was > 100 µM (inactive) and the GI50 [45] was 35.3 µM (inactive). For the same molecule, the GI50 [46] was > 100 µM (inactive), the GI50 [47] was > 100 µM (inactive) and the GI50 [48] was 14.5 µM (inactive). For the same molecule, the GI50 [49] was 23.7 µM (inactive).
